Values after ≈ are worked out from the molar mass of the structure shown. Like-named read-outs stand apart in the source and are kept apart here.
Experiments:
S. aureus (MRSA) MW2 = assay: Minimal inhibitory concentration (MIC) assay, micro-dilution; type: cell-based; conditions: for MIC: Example 5, MRSA MW2
Excerpt: Bacterial strains, growth conditions, and persister isolation. Methicillin-resistant S. aureus strains, MW2 BAA-1707, ATCC 33591, and JE2, methicillin-susceptible S. aureus strains, NCTC 8325, Newman, and ATCC 29213, vancomycin-resistant S. aureus strain, VRS1, Enterococcus faecium E007, vancomycin-resistant E. faecium strains, C68,^7 WB312, and WC196, Klebsiella pneumoniae WGLW2 (BEI Resources, Manassas, Va., USA), Acinetobacter baumannii ATCC 17978, Pseudomonas aeruginosa PA14, and Enterobacter aerogenes ATCC 13048 were used to test antimicrobial activity (Table 1). S. aureus strains were grown in tryptic soy broth (TSB) (BD, Franklin Lakes, N.J., USA), and E. faecium was grown in brain-heart infusion (BHI) broth (BD, Franklin Lakes, N.J., USA) at 37° C. K. pneumoniae, A. baumannii, P. aeruginosa, and E. aerogenes were grown in Luria Bertani (LB) broth (BD, Franklin Lakes, N.J., USA) at 37° C.
Minimal inhibitory concentration (MIC) assay. The MICS of antibiotics were determined by the standard micro-dilution method recommended by the Clinical and Laboratory Standards Institute. MIC assays were conducted in biological triplicate.

human erythrocytes = assay: Human blood hemolysis; type: cell-based; conditions: 32 μg/ml
Description: Human blood hemolysis. Hemolytic activity was evaluated as described in a previous study. Briefly, 100 μL of 4% human erythrocytes (Rockland Immunochemicals, Limerick, Pa., USA) was added to 100 μL of 2-fold serial dilutions of compounds in PBS, 0.2% DMSO (negative control), or 2% Triton-X 100 (positive control) in a 96-well plate. The 96-well plate was incubated at 37° C. for 1 h and then centrifuged at 500× g for 5 min. 50 μL of the supernatant was transferred to a fresh 96-well plate, and absorbance of supernatants was measured at 540 nm. Percent hemolysis was calculated using the following equation: (A540 nm of compound treated sample−A540 nm of 0.1% DMSO treated sample)/(A540 nm of 1% Triton X-100 treated sample−A540 nm of 0.1% DMSO treated sample)×100. HC50 (concentration of a compound causing 50% hemolysis) was determined using SigmaPlot 10.0 (Systat Software Inc., San Jose, Calif., USA).

HKC-8 = assay: Cytotoxicity (WST-1); type: cell-based; conditions: 32 μg/ml
Description: (§1) Cytotoxicity. […] HepG2 and HKC-8 cells were grown in Dulbecco's modified Eagle F-12 media mixed 1:1 with Ham's F-12 (DMEM/F-12, Life Technologies, Carlsbad, Calif., USA) supplemented with 10% FBS and 4 mM L-glutamine at 37° C. in 5% CO2. For cytotoxicity assays, HepG2 or HKC-8 was cultured in 96-well plates in 100 μL/well of the proper media to reach 70-80% confluence. The cells were then treated with a range of concentrations of nTZDpa or its analogs for 72 h. 10 μL of WST-1 (Roche, Mannheim, Germany) was added per well for the last 4 h of the 72 h period. WST-1 reduction was measured at absorbance 450 nm. The percent […] relative to that of the no-treatment control was calculated. The assay was carried out in biological triplicate.

HepG2 = assay: Cytotoxicity (WST-1); type: cell-based; conditions: 32 μg/ml
Description: as §1

MRSA MW2 = assay: SYTOX Green membrane permeability assay; type: cell-based, S. aureus
Description: SYTOX Green membrane permeability assay. […] The washed cells were adjusted to OD600=0.4 with PBS. SYTOX Green (Molecular Probes, Waltham, Mass., USA) was added to 10 mL of the diluted bacterial suspension to a final concentration of 5 μM and incubated for 30 min at room temperature in the dark. 50 μL of the bacteria/SYTOX Green suspension was mixed with 50 μl of PBS containing twice the desired concentrations of compounds in black, clear-bottom, 96-well plates (Corning no. 3904). Fluorescence was measured at room temperature using a spectrophotometer (SpectraMax M2, Molecular Devices), with excitation and emission wavelengths of 485 nm and 525 nm, respectively. All experiments were conducted in biological triplicate.

Row | SMILES | MIC (S. aureus (MRSA) MW2) | hemolysis of human erythrocytes (human erythrocytes) | cell death of HKC-8 (HKC-8) | cell death of HepG2 (HepG2) | MIC (S. aureus (MRSA) MW2; Staphylococcus aureus, read-out: MIC) [µg/mL] | antibiotic activity / potency relative to nTZDpa (S. aureus (MRSA) MW2; growing S. aureus cells) | concentration inducing SYTOX Green fluorescence (MRSA MW2) [µg/mL]
1 | O=C(O)c1c(Sc2ccccc2)c2ccc(Cl)cc2n1Cc1ccc(Cl)cc1 [Analog 2a] | same MIC | did not significantly cause hemolysis | did not display a significant level of cytotoxicity | did not display a significant level of cytotoxicity |  |  | 
2 | COc1c(C(=O)O)n(Cc2ccc(Cl)cc2)c2ccc(Cl)cc12 [Compound S14, 5-chloro-1-(4-chlorobenzyl)-3-methoxy-1H-indole-2-carboxylic acid] |  |  |  |  | 32 (≈ 91.4 µM) | reduction of antibiotic activity | 64
